In paper PMC10629825, “Genetic validation of PfFKBP35 as an antimalarial drug target” (eLife, 2023) one finds EC50 data, which are given here for one molecule.

What is called EC50 is the concentration needed to bring the measured effect to its halfway point. The low end stands for greater potency, the high end for weaker potency.

Type in all cases: biochemical
For one assay, the target named is T1, PfFKBP35 (Plasmodium falciparum, UniProt Q8I4V8).
T1 construct: gene FKBP35; endogenous protein in parasite lysate
Briefly: isothermal dose-response MS-CETSA on parasite protein lysate ([…]°C); live-cell CETSA EC50 […].

Assay [1] has as its target T2, pre-mRNA-splicing factor CEF1 (Plasmodium falciparum, UniProt Q7KQL1).
T2 construct: gene PF3D7_1033600; endogenous protein in parasite lysate
Briefly: isothermal dose-response MS-CETSA on parasite protein lysate (putative target).

Assay [2] has as its target T3, N6-methyl transferase MT-A70 (Plasmodium falciparum, UniProt Q8I6Z2).
T3 construct: gene PF3D7_0729500; endogenous protein in parasite lysate
Described as above.

T3 sequence (Q8I6Z2 entry or part of it): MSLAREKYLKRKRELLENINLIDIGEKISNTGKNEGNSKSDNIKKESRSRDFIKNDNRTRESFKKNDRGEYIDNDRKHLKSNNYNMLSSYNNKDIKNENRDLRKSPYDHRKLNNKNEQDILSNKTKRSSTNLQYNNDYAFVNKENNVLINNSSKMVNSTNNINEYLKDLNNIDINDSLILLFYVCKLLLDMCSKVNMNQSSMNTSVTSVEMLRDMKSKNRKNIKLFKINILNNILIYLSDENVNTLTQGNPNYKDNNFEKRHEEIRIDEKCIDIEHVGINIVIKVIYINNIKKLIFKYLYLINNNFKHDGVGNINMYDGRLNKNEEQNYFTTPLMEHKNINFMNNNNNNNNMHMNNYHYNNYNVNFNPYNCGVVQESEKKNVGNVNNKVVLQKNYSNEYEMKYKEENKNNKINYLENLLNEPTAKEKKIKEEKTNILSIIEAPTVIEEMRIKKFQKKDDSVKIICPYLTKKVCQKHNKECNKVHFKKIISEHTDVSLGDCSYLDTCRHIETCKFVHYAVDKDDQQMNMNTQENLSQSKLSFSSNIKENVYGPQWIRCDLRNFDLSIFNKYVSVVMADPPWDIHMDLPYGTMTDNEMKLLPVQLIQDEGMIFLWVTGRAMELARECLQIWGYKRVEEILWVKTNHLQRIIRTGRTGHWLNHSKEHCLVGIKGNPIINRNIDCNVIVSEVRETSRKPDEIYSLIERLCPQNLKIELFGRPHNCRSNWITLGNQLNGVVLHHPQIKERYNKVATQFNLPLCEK
T2 sequence (Q7KQL1 entry or part of it): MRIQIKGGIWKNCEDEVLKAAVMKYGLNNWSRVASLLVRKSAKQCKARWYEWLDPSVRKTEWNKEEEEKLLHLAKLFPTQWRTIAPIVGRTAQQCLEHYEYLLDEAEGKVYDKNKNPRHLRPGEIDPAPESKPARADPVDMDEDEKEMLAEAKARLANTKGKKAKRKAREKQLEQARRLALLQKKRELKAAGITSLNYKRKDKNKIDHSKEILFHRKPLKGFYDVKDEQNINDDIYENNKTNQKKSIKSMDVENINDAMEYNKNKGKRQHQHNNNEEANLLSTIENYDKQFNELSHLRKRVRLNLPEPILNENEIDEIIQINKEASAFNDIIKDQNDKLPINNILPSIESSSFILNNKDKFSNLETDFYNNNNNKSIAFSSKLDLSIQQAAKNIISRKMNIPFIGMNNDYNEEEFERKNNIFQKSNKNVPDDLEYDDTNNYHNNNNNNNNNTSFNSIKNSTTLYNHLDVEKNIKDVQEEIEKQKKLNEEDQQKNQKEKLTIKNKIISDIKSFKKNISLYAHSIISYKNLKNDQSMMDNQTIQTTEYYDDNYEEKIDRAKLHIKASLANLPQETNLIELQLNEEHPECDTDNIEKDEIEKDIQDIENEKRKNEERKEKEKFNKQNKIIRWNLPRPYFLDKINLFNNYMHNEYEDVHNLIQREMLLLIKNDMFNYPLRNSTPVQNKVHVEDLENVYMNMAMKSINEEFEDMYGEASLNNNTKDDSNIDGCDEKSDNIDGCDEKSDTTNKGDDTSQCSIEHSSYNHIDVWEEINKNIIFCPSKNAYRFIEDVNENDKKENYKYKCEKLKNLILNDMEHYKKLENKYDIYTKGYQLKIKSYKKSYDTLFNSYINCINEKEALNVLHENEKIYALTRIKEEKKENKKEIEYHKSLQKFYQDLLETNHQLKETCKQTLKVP
T1 sequence (Q8I4V8 whole entry): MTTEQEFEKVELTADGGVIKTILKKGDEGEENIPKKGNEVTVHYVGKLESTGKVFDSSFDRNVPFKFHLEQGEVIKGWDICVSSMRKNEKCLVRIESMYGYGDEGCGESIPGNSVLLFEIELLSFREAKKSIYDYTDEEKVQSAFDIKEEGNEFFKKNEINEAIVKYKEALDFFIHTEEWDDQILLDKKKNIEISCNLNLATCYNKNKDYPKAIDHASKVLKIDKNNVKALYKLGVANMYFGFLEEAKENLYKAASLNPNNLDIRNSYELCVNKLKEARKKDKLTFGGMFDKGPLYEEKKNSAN

Take `C=CC[C@@H]1/C=C(\C)C[C@H](C)C[C@H](OC)[C@H]2O[C@@](O)(C(=O)C(=O)N3CCCC[C@H]3C(=O)O[C@H](/C(C)=C/[C@@H]3CC[C@@H](O)[C@H](OC)C3)[C@H](C)[C@@H](O)CC1=O)[C@H](C)C[C@@H]2OC` [FK506]: the EC50 at PfFKBP35 amounted to 152 nM; in assay [1], 3100 nM; in assay [2] it was 2000 nM.
